Like-named read-outs stand apart in the source and are kept apart here.
Assays:
PI3 kinase alpha = PI3 kinase alpha (Homo sapiens, UniProt P42336); assay: PI3K ATP depletion assay (Biological Method 1, Assay 3; KinaseGlo luminescence); assay type: biochemical; details: ATP depletion assay, read-out: PI3 Kinase Alpha, IC50
In short: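 Compound in DMSO was mixed with 10 nM PI3 kinase and 5 μg/mL phosphatidylinositol, and the reaction was started with 2 μM ATP. It ran to about 50% ATP depletion and was stopped with KinaseGlo.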

[1] = tested on: A2780 ovarian cancer cells; assay: Cellular proliferation in A2780 cells, Cell Titer Glo (Biological Method 4); assay type: cell-based; details: Homo sapiens
In short: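 A2780 cells seeded at 1,000/well in DMEM with 10% FBS, at least 2 h before compound, then exposed 72 h at 37 °C, 5% CO2. Viable cells measured by Cell Titer Glo luminescence; EC50 calculated from duplicate conditions.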

[2] = tested on: pSer473 Akt in A2780 cells; assay: pSer473 Akt assay to monitor PI3K pathway in A2780 cells (Biological Method 2, MSD); assay type: cell-based; details: Homo sapiens, inhibition of Akt phosphorylation
Experimental: In this method, an assay for measuring the PI3K-mediated pSer473-Akt status after treatment with representative inhibitor compounds of the invention is described.
A2780 cells were cultured in DMEM supplemented with 10% FBS. L-glutamine, sodium pyruvate, and antibiotics. Cells were plated in the same medium at a density of 15,000 cells per well into 96 well tissue culture plates, with outside wells vacant, and allowed to adhere overnight.
Test compounds supplied in DMSO were diluted further into DMSO at 500 times the desired final concentrations before dilution into culture media to 2 times the final concentrations. Equal volumes of 2× compounds were added to the cells in 96 well plates and incubated at 37° C. for one hour. The media and compounds were then removed, the plates chilled and cells lysed in a lysis buffer (150 mM NaCl, 20 mM Tris pH 7.5, 1 mM EDTA, 1 mM EGTA, 1% Triton X-100) supplemented with phosphatase and protease inhibitors. After thorough mixing, lysates were transferred to both pSer473Akt and total Akt assay plates from Meso Scale Discovery (MSD), and incubated overnight with shaking at 4° C.
The assays were read on a SECTOR Imager 6000 instrument (Meso Scale Discovery). Ratios of the signal from pSer473Akt and total Akt assays were used to correct for any variability and the percent inhibition of pSer473Akt from the total signal seen in cells treated with compound versus DMSO alone was calculated and used to determine EC50 values for each compound.

[3] = ovarian cancer cell line A2780, Biological Method 4

PI3 kinase alpha, sequence (P42336 whole entry): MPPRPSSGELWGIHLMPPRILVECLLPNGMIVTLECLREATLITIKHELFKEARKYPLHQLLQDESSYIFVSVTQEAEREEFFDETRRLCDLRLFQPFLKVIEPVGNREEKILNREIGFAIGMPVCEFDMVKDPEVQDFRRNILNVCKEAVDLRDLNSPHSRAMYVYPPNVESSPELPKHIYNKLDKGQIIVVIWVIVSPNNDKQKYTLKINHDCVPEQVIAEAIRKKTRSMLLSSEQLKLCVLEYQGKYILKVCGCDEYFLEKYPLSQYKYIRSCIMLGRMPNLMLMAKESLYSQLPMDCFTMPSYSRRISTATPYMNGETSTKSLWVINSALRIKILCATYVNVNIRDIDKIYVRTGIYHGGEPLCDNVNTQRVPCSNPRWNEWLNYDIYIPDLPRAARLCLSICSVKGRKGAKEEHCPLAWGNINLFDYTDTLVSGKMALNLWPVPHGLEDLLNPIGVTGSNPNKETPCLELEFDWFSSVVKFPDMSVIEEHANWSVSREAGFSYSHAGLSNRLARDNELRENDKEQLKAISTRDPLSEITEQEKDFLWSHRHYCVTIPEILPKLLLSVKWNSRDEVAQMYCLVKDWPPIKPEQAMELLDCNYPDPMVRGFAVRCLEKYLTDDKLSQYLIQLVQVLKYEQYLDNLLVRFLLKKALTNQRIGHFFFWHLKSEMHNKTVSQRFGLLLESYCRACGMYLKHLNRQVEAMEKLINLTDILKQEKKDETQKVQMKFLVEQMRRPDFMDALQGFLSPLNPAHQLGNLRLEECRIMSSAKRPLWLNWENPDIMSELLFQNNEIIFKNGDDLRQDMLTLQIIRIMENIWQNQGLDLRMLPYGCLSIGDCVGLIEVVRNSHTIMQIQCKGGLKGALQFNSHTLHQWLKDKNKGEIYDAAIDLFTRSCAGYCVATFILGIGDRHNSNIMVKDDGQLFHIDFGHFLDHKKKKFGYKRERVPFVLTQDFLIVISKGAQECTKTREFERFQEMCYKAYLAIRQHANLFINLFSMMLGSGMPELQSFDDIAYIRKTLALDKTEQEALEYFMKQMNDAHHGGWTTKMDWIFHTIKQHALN
PI3 kinase alpha, sequence (P27986 whole entry partner): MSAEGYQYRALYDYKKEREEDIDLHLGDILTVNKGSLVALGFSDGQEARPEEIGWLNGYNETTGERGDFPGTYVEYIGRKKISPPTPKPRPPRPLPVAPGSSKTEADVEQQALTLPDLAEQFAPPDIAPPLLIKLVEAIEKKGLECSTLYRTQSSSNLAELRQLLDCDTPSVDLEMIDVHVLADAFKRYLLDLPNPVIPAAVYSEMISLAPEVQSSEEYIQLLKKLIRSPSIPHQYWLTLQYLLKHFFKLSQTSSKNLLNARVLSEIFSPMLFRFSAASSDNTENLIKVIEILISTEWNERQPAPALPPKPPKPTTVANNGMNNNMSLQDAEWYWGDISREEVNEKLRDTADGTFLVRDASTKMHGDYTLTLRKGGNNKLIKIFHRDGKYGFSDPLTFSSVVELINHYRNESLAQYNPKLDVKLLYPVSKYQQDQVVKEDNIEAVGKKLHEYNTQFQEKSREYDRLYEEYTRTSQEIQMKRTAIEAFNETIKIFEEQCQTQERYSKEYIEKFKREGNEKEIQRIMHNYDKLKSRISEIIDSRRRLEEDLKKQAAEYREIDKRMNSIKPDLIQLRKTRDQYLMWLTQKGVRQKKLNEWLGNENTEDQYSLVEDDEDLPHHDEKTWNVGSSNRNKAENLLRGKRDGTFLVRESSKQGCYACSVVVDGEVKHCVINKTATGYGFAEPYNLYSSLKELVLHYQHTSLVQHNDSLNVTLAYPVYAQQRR

| SMILES | IC50 (PI3 kinase alpha) | EC50 ([1]; ovarian cancer cell line A2780) | EC50 ([2]; A2780 cells) | IC50 (PI3 kinase alpha; Biological Method 1) | EC50 [1, 3] | EC50 ([2]; A2780, Biological Method 2) |
| --- | --- | --- | --- | --- | --- | --- |
| Cc1cc(Nc2cc(-c3ccc(N)nc3)nc(N3CCOCC3)n2)ccn1 [Compound 130] | < 1000 nM | < 1000 nM | < 1000 nM |  |  |  |
| CC(=O)N1CCC(Oc2cc(-c3cnc(N)[nH]c3=O)nc(N3CCOCC3)n2)CC1 [Compound 30] | < 1000 nM | < 1000 nM | < 1000 nM |  |  |  |
| Nc1cc(C(F)(F)F)c(-c2cc(Nc3ccncc3C(F)(F)F)nc(N3CCOCC3)n2)cn1 [Compound 153] | < 1000 nM | < 1000 nM | < 1000 nM |  |  |  |
| CCc1c(Nc2cnc3ccccc3c2)nc(N2CCOCC2)nc1-c1cnc(N)nc1 [Compound 98] | < 1000 nM | < 1000 nM | < 1000 nM |  |  |  |
| Nc1ccc(-c2cc(Nc3ccc(S(N)(=O)=O)cc3)nc(N3CCOCC3)n2)cn1 [Compound 190] | < 1000 nM | < 10000 nM | < 1000 nM |  |  |  |
| Nc1cc(C(F)(F)F)c(-c2cc(-c3nccs3)nc(N3CCOCC3)n2)cn1 [Compound 138] | < 1000 nM | < 10000 nM | < 1000 nM |  |  |  |
| Nc1ncc(-c2cc(N3CCOc4ccccc43)nc(N3CCOCC3)n2)cn1 [Compound 65] | < 1000 nM | < 1000 nM | < 1000 nM |  |  |  |
| N#Cc1cc(N)ncc1-c1cc(OC2CCOCC2)nc(N2CCOCC2)n1 [Compound 118] | < 1000 nM | < 1000 nM | < 1000 nM |  |  |  |
| CS(=O)(=O)Nc1nc2ccccc2cc1-c1cc(-c2ccc(N)nc2)nc(N2CCOCC2)n1 [Compound 157] | < 1000 nM | < 25000 nM | < 1000 nM |  |  |  |
| CC(C)Oc1ncccc1Nc1cc(-c2cnc(N)cc2C(F)(F)F)nc(N2CCOCC2)n1 [Compound 204] |  |  |  | < 1000 nM | < 25000 nM | < 1000 nM |
| Nc1ncc(-c2cc(OC3CCN(C(=O)c4ccccc4)CC3)nc(N3CCOCC3)n2)c(C(F)(F)F)n1 [Compound 124] | < 1000 nM | < 1000 nM | < 1000 nM |  |  |  |
| N#Cc1ccc(Nc2cc(-c3ccc(N)nc3)nc(N3CCOCC3)n2)cc1 [Compound 179] | < 1000 nM | < 10000 nM | < 1000 nM |  |  |  |
| CS(=O)(=O)c1ccc(Nc2cc(-c3cnc(N)[nH]c3=O)nc(N3CCOCC3)n2)cn1 [Compound 208] |  |  |  | < 1000 nM | < 25000 nM | < 10000 nM |
| CS(=O)(=O)c1ccc(Nc2cc(-c3cnc(N)nc3C(F)(F)F)nc(N3CCOCC3)n2)cn1 [Compound 78] | < 1000 nM | < 1000 nM | < 1000 nM |  |  |  |
| CS(=O)(=O)c1ccc2cc(Nc3cc(-c4ccc(N)nc4)nc(N4CCOCC4)n3)cnc2c1 [Compound 149] | < 1000 nM | < 10000 nM | < 1000 nM |  |  |  |
| CC(C)OC(=O)N1CCC(Oc2cc(-c3cnc(N)nc3N)nc(N3CCOCC3)n2)CC1 [Compound 131] | < 1000 nM | < 1000 nM | < 1000 nM |  |  |  |
| CC(C)OC(=O)N1CCC(Oc2cc(-c3cnc(N)[nH]c3=O)nc(N3CCOCC3)n2)CC1 [Compound 32] | < 1000 nM | < 1000 nM | < 1000 nM |  |  |  |
| Nc1cc(C(F)(F)F)c(-c2cc(O[C@@H]3CCOC3)nc(N3CCOCC3)n2)cn1 [Compound 25] | < 1000 nM | < 10000 nM | < 1000 nM |  |  |  |
| Cc1cc(Nc2cc(-c3cnc(N)nc3C(F)(F)F)nc(N3CCOCC3)n2)ccn1 [Compound 52] | < 1000 nM | < 1000 nM | < 1000 nM |  |  |  |
| CC(C)N1CCC(Oc2cncc(-c3cc(-c4cnc(N)cc4C(F)(F)F)nc(N4CCOCC4)n3)c2)C1 (stereo not shown) [Compound 129] | < 1000 nM | < 10000 nM | < 1000 nM |  |  |  |
| Nc1cc(Cl)c(-c2cc(N3CCOCC3)nc(N3CCOCC3)n2)cn1 [Compound 114] |  | < 10000 nM | < 1000 nM |  |  |  |
| Nc1ncc(-c2cc(Nc3cnc4ccccc4c3)nc(N3CCOCC3)n2)c(C(F)(F)F)n1 [Compound 192] |  | < 1000 nM | < 1000 nM |  |  |  |
| Nc1ncc(-c2cc(Nc3cnc4ccccc4c3)nc(N3CCOCC3)n2)c(N)n1 [Compound 147] |  | < 1000 nM | < 1000 nM |  |  |  |
| CN(C)CCOc1ccc(Nc2cc(-c3ccc(N)nc3)nc(N3CCOCC3)n2)cn1 [Compound 198] |  |  |  | < 1000 nM |  | < 1000 nM |
| CN1CCC(Oc2ccc(Nc3cc(-c4cnc(N)nc4)nc(N4CCOCC4)n3)cn2)CC1 [Compound 37] |  | < 1000 nM | < 1000 nM |  |  |  |
| Nc1cc(Cl)c(-c2cc(Nc3cnc4ccccc4c3)nc(N3CCOCC3)n2)cn1 [Compound 175] |  | < 1000 nM | < 1000 nM |  |  |  |
| Nc1ncc(-c2cc(N3CCOCC3)nc(N3CCOCC3)n2)c(=O)[nH]1 [Compound 77] |  | < 1000 nM | < 1000 nM |  |  |  |
| Nc1ncc(-c2cc(N3CCOCC3)nc(N3CCOCC3)n2)c(C(F)(F)F)n1 [Compound 85] |  | < 1000 nM | < 1000 nM |  |  |  |

| SMILES | IC50 (PI3 kinase alpha) | EC50 ([1]; ovarian cancer cell line A2780) | EC50 ([2]; A2780 cells) | IC50 (PI3 kinase alpha; Biological Method 1) | EC50 [1, 3] | EC50 ([2]; A2780, Biological Method 2) |
| --- | --- | --- | --- | --- | --- | --- |
| Nc1ncc(-c2cc(Nc3cnc4ccccc4c3)nc(N3CCOCC3)n2)cn1 [Compound 1] |  | < 1000 nM | < 1000 nM |  |  |  |
| Cc1nc(N)ncc1-c1cc(Nc2cnc3ccccc3c2)nc(N2CCOCC2)n1 [Compound 96] |  | < 1000 nM | < 1000 nM |  |  |  |
| Nc1cc(C(F)(F)F)c(-c2cc(Nc3cnc4ccccc4c3)nc(N3CCOCC3)n2)cn1 [Compound 193] |  | < 1000 nM | < 1000 nM |  |  |  |
| Nc1ncc(-c2cc(N3CCOCC3)nc(N3CCOCC3)n2)cn1 [Compound 100] |  | < 1000 nM | < 1000 nM |  |  |  |
| Nc1cc(C(F)(F)F)c(-c2ccnc(N3CCOCC3)n2)cn1 [Compound 466] | < 1000 nM | < 25000 nM |  |  |  |  |
| Nc1ncc(-c2cc(Nc3ccnc4cc(C(F)(F)F)ccc34)nc(N3CCOCC3)n2)cn1 [Compound 409] | < 1000 nM | < 1000 nM |  |  |  |  |
| Nc1ccc(-c2cc(-c3ccncc3)nc(N3CCOCC3)n2)cn1 [Compound 246] |  |  |  | < 1000 nM | < 10000 nM |  |
| COC(=O)c1cnc(N2CCOCC2)nc1-c1cnc(N)nc1 [Compound 431] | < 1000 nM | < 25000 nM |  |  |  |  |
| Nc1ncc(-c2cc(N[C@@H]3CN4CCC3CC4)nc(N3CCOCC3)n2)cn1 [Compound 520] | < 1000 nM | < 10000 nM |  |  |  |  |
| N#Cc1cc(N)ncc1-c1cc(Nc2cnc3ccccc3c2)nc(N2CCOCC2)n1 [Compound 5] |  | < 1000 nM | < 10000 nM |  |  |  |
| COc1ccccc1CCNc1cc(-c2ccc(N)nc2)nc(N2CCOCC2)n1 [Compound 304] |  |  |  | < 1000 nM | < 25000 nM |  |
| Nc1ncc(-c2cc(N3CCCc4ccccc43)nc(N3CCOCC3)n2)cn1 [Compound 411] | < 1000 nM | < 10000 nM |  |  |  |  |
| Nc1cc(C(F)(F)F)c(-c2cc(N3CCOC(C(=O)N4CCOCC4)C3)nc(N3CCOCC3)n2)cn1 (stereo not shown) [Compound 325] |  |  |  | < 1000 nM | < 25000 nM |  |
| Nc1ncc(-c2ccnc(N3CCOCC3)n2)cn1 [Compound 132] |  | < 10000 nM | < 1000 nM |  |  |  |
| Nc1ccc(-c2cc(Sc3ccncc3)nc(N3CCOCC3)n2)cn1 [Compound 294] |  |  |  | < 1000 nM | < 10000 nM |  |
| CC(C)NC(=O)C1CN(c2cc(-c3cnc(N)cc3C(F)(F)F)nc(N3CCOCC3)n2)CCO1 (stereo not shown) [Compound 330] |  |  |  | < 1000 nM | < 25000 nM |  |
| N#Cc1cc(N)ncc1-c1cc(N2CCOCC2)nc(N2CCOCC2)n1 [Compound 162] |  | < 1000 nM | < 1000 nM |  |  |  |
| Nc1ncc(-c2cc(C(=O)N3CCCCC3)nc(N3CCOCC3)n2)cn1 [Compound 234] |  |  |  | < 1000 nM | < 25000 nM |  |
| NC(=O)c1cccc(-c2cc(-c3ccc(N)nc3)nc(N3CCOCC3)n2)c1 [Compound 251] |  |  |  | < 1000 nM | < 10000 nM |  |
| Nc1cc(C(F)(F)F)c(-c2cc(N3CCOC(C(=O)NC4CCOCC4)C3)nc(N3CCOCC3)n2)cn1 (stereo not shown) [Compound 329] |  |  |  | < 1000 nM | < 25000 nM |  |
| Nc1cc(C(F)(F)F)c(-c2cc(N3CCOC(C(=O)O)C3)nc(N3CCOCC3)n2)cn1 (stereo not shown) [Compound 333] |  |  |  | < 1000 nM | < 25000 nM |  |
| COc1ccc2cc(Nc3cc(-c4ccc(N)nc4)nc(N4CCOCC4)n3)cnc2c1 [Compound 494] | < 1000 nM | < 25000 nM |  |  |  |  |
| Nc1ncc(-c2cc(N3CCc4ccccc4C3)nc(N3CCOCC3)n2)cn1 [Compound 403] | < 1000 nM | < 10000 nM |  |  |  |  |
| Nc1cc(C(F)(F)F)c(-c2cc(N3CCC(=O)CC3)nc(N3CCOCC3)n2)cn1 [Compound 324] |  |  |  | < 1000 nM | < 10000 nM |  |
| Nc1ncc(-c2cc(Nc3ccc(Oc4ccccc4)nc3)nc(N3CCOCC3)n2)cn1 [Compound 107] |  | < 10000 nM | < 1000 nM |  |  |  |
| NC(=O)c1ccnc(Nc2cc(-c3ccc(N)nc3)nc(N3CCOCC3)n2)c1 [Compound 348] |  |  |  | < 1000 nM | < 25000 nM |  |
| Nc1ncc(-c2cc(Cl)nc(N3CCOCC3)n2)c(N)n1 [Compound 464] | < 1000 nM | < 25000 nM |  |  |  |  |

Reference: patent US8217035B2, “Pyrimidine derivatives used as PI-3-kinase inhibitors” (Novartis AG, priority 2006, dated 2012)
